# Assay results: patent publication US20220087990A1, “APPLICATION OF RIFAMYCIN-QUINOLIZIDONE CONJUGATE MOLECULE AND PHARMACEUTICALLY ACCEPTABLE SALT THEREOF” (priority 2019, published 2022)
# Entries after “also recorded” stand apart in the source; their conditions may differ. Read-outs that look alike come from different tables or passages of the source.
# What was measured:
# Type in all cases: cell-based
# [1] = test system: Staphylococcus aureus ATCC 29213; assay: MIC measured by fluid broth microdilution method (quality control); settings: ATCC29213
# [2] = test system: methicillin-resistant Staphylococcus aureus (MRSA) isolates; assay: MIC measured by agar dilution method (CLSI); settings: Staphylococcus aureus, MRSA, agar dilution
# Procedure: (§1) Spontaneous mutation and minimal inhibit concentration (MIC) tested by agar dilution method, the above compounds are respectively prepared into a stock solution (100X) with a concentration 100 times the highest final concentration in corresponding solvents and used on the same day. Before use, I is further diluted with DMSO; and oxacillin, rifampicin and levofloxacin are further diluted with water.
# (§2) Bacterial isolates: Staphylococcus aureus isolates are retrieved from the −80° C. storage room of Micromyx Culture Collection, thawed, plated onto Tryptic Soy Agar+5% sheep blood (Remel; Lenexa, Kans.), and then incubated aerobically at 35° C. overnight. S. aureus ATCC 29213 (MRSA; MMX 0100) was included during testing only for the purpose of quality control. Test Media: The isolates were tested in both the agar dilution MIC assay and the spontaneous mutation assay using Mueller-Hinton Agar (MHA; BD/BBL; Lot No. 6229829 & 4216798). Inocula of each isolate were suspended in cation-adjusted Mueller-Hinton Broth (CAMHB) (BD/BBL; Lot Nos. 5257869 & 6258541). Sodium chloride (Sigma-Aldrich; Lot No. SLBL0434V) was added to CAMHB at a final concentration of 2% when testing oxacillin. Dilutions of bacterial cell suspensions for the purpose of performing colony counts were also made in CAMHB.
# (§3) MIC measured by agar dilution method: according to the recommendation from the Clinical and Laboratory Standards Institute (CLSI), the MIC value is measured by the agar dilution method. […] Each test agent was combined with molten MHA agar (50-55° C.) at a ratio of 0.2 mL of 100× test agent to 19.8 mL agar in a sterile tube, mixed gently, and then poured into a sterile petri plate (BD Falcon). Plates were allowed to solidify at room temperature. A 0.5 McFarland standard bacterial suspension was prepared, diluted 1:10 in CAMHB, and transferred to the wells of a stainless steel replicator block before stamping onto plates containing drug, resulting in 10^4 CFU/spot. After allowing the inoculum to dry on the surface of the agar, the plates were inverted, incubated aerobically at 35° C. for 20-24 hr, and inspected for growth.
# [3] = test system: Staphylococcus aureus MMX 3265, 3270, 3278, and 6312; settings: for Cell counts (mean): 1 used if no colonies
# Procedure: Each test agent stock solution was prepared at 100× the final desired test concentration for the spontaneous mutation frequency assay agar plates.
# The drug/agar mixture was dispensed into sterile 150×15 mm plates (BD Falcon) to a volume of 50 mL in each plate. The target inoculum for each spontaneous mutation plate was at least 10^9 CFU. Plates were allowed to solidify at room temperature.
# The inocula for the spontaneous mutation frequency assay were prepared by using sterile cotton swabs to harvest colonies from freshly grown isolates and preparing a dense cell suspension (approximately 1.70 on the turbidity meter) in 6 mL of CAMHB. The viable count of this suspension was determined by plating serial ten-fold dilutions onto MHA and taking the average of duplicate counts. For the spontaneous mutation assay, 0.25 mL of inoculum was spread onto the surface of duplicate 150×15 mm plates for each drug concentration tested, allowed to dry, and then the plates were inverted and incubated at 35° C. for 48 hr prior to counting viable colonies. The spontaneous mutation frequency was calculated using the following equation:
# Spontaneous mutation frequency=average number of colonies on selected plates/total number of cells incubated onto each plate
# If there were no colonies on the antibiotic selection plates, the spontaneous mutation frequency was reported as less than or equal to the mutation frequency that would have resulted from the presence of one colony (e.g. 1/total number of cells inoculated onto the plate).
# [4] = test system: Staphylococcus aureus ATCC 29213; assay: MIC measured by agar dilution method, quality control strain; settings: strain 100, MSSA QC strain
# Procedure: as §1, §2, §3
# In parallel experiments, a standard bacterium suspension with a […] turbidity of 0.5 is prepared as a standard inoculum for agar dilution analysis (10^4 CFU/point). […] In this step, the broths and drugs used in the spontaneous mutation analysis are used to confirm that the concentration of the drug stock solution can inhibit the growth of the standard inoculum. The quality of the levofloxacin stock solution is controlled by a standard inoculum and levofloxacin of 8-0.008 μg/mL, and separate agar dilution analysis is performed. […]
# [5] = isolate 3265 LEV^R RIF^S, drug 0.5 μg/mL in plates (combination 0.5 each), inoculation 5.40E+09 CFU
# [6] = isolate 3265 LEV^R RIF^S, drug 2 μg/mL in plates (combination 2 each), inoculation 5.40E+09 CFU
# [7] = isolate 3265 LEV^R RIF^S, drug 8 μg/mL in plates (combination 8 each), inoculation 5.40E+09 CFU
# [8] = isolate 3270 LEV^R RIF^S, drug 0.5 μg/mL in plates (combination 0.5 each), inoculation 5.30E+09 CFU
# [9] = isolate 3270 LEV^R RIF^S, drug 2 μg/mL in plates (combination 2 each), inoculation 5.30E+09 CFU
# [10] = isolate 3270 LEV^R RIF^S, drug 8 μg/mL in plates (combination 8 each), inoculation 5.30E+09 CFU
# [11] = isolate 3278 LEV^S RIF^S, drug 0.5 μg/mL in plates (combination 0.5 each), inoculation 3.80E+09 CFU
# [12] = isolate 3278 LEV^S RIF^S, drug 2 μg/mL in plates (combination 2 each), inoculation 3.80E+09 CFU
# [13] = isolate 3278 LEV^S RIF^S, drug 8 μg/mL in plates (combination 8 each), inoculation 3.80E+09 CFU
# [14] = isolate 6312 LEV^R RIF^S, drug 0.5 μg/mL in plates (combination 0.5 each), inoculation 3.90E+09 CFU
# [15] = isolate 6312 LEV^R RIF^S, drug 2 μg/mL in plates (combination 2 each), inoculation 3.90E+09 CFU
# [16] = isolate 6312 LEV^R RIF^S, drug 8 μg/mL in plates (combination 8 each), inoculation 3.90E+09 CFU
smiles,measurement,setting,value
CO[C@H]1/C=C/O[C@@]2(C)Oc3c(C)c(O)c4c(O)c(c(/C=N/N5CCC(N(C)C6([C@@H]7CCN(c8c(F)cn9c(=O)c(C(=O)O)cc(C%10CC%10)c9c8C)C7)CC6)CC5)c(O)c4c3C2=O)NC(=O)/C(C)=C\C=C\[C@H](C)[C@H](O)[C@@H](C)[C@@H](O)[C@@H](C)[C@H](OC(C)=O)[C@@H]1C [I],MIC,[1],0.25 µg/mL
same,MIC,"[2]; read-out: MIC over all strains under test, 23 MRSA isolates",0.015 µg/mL
same,MIC,"[2]; strain 3085, LEV^S RIF^S",0.015 µg/mL
same,MIC,"[2]; strain 3090, LEV^R RIF^S",0.015 µg/mL
same,MIC,"[2]; strain 3094, LEV^R RIF^S",0.015 µg/mL
same,MIC,"[2]; strain 3098, LEV^S RIF^S",0.015 µg/mL
same,MIC,"[2]; strain 3265, LEV^R RIF^S",0.015 µg/mL
same,MIC,"[2]; strain 3266, LEVR RIFS",0.015 µg/mL
same,MIC,"[2]; strain 3270, LEV^R RIF^S",0.015 µg/mL
same,MIC,"[2]; strain 3271, LEV^R RIF^S",0.015 µg/mL
same,MIC,"[2]; strain 3277, LEV^S RIF^S",0.015 µg/mL
same,MIC,"[2]; strain 3278, LEV^S RIF^S",0.015 µg/mL
same,MIC,"[2]; strain 6312, LEV^R RIF^S",0.015 µg/mL
same,MIC,"[2]; strain 6313, LEV^R RIF^S",0.015 µg/mL
same,MIC,"[2]; strain 6315, LEV^R RIF^S",0.015 µg/mL
same,MIC,"[2]; strain 6498, LEV^R RIF^S",0.015 µg/mL
same,MIC,"[2]; strain 6501, LEV^R RIF^S",0.015 µg/mL
same,MIC,"[2]; strain 6505, LEV^R RIF^S",0.015 µg/mL
same,MIC,"[2]; strain 7771, LEV^R RIF^S",0.015 µg/mL
same,MIC,"[2]; strain 7772, LEV^S RIF^S",0.015 µg/mL
same,MIC,"[2]; strain 7773, LEV^R RIF^S",0.015 µg/mL
same,MIC,"[2]; strain 7774, LEV^R RIF^S",0.015 µg/mL
same,MIC,"[2]; strain 7775, LEV^R",0.015 µg/mL
same,spontaneous mutants / development of drug resistance (in words),"[3]; four MRSA isolates, 0.5, 2 or 8 μg/mL",No spontaneous mutants are recovered; also recorded: none of the four MRSA strains under test develops drug resistance
same,Cell counts (mean),"[3]; isolate 3265, drug 0.5 μg/mL",1^1
same,Cell counts (mean),"[3]; isolate 3265, drug 2 μg/mL",1
same,Cell counts (mean),"[3]; isolate 3265, drug 8 μg/mL",1
same,Cell counts plate A,[3]; [5],0
same,Cell counts plate B,[3]; [5],0
same,Mutation frequency,[3]; [5],<1.85E−10
same,Cell counts plate A,[3]; [6],0
same,Cell counts plate B,[3]; [6],0
same,Mutation frequency,[3]; [6],<1.85E−10
same,Cell counts plate A,[3]; [7],0
same,Cell counts plate B,[3]; [7],0
same,Mutation frequency,[3]; [7],<1.85E−10
same,Cell counts (mean),"[3]; isolate 3270, drug 0.5 μg/mL",1
same,Cell counts (mean),"[3]; isolate 3270, drug 2 μg/mL",1
same,Cell counts (mean),"[3]; isolate 3270, drug 8 μg/mL",1
same,Cell counts plate A,[3]; [8],0
same,Cell counts plate B,[3]; [8],0
same,Mutation frequency,[3]; [8],<1.89E−10
same,Cell counts plate A,[3]; [9],0
same,Cell counts plate B,[3]; [9],0
same,Mutation frequency,[3]; [9],<1.89E−10
same,Cell counts plate A,[3]; [10],0
same,Cell counts plate B,[3]; [10],0
same,Mutation frequency,[3]; [10],<1.89E−10
same,Cell counts (mean),"[3]; isolate 3278, drug 0.5 μg/mL",1
same,Cell counts (mean),"[3]; isolate 3278, drug 2 μg/mL",1
same,Cell counts (mean),"[3]; isolate 3278, drug 8 μg/mL",1
same,Cell counts plate A,[3]; [11],0
same,Cell counts plate B,[3]; [11],0
same,Mutation frequency,[3]; [11],<2.63E−10
same,Cell counts plate A,[3]; [12],0
same,Cell counts plate B,[3]; [12],0
same,Mutation frequency,[3]; [12],<2.63E−10
same,Cell counts plate A,[3]; [13],0
same,Cell counts plate B,[3]; [13],0
same,Mutation frequency,[3]; [13],<2.63E−10
same,Cell counts (mean),"[3]; isolate 6312, drug 0.5 μg/mL",1
same,Cell counts (mean),"[3]; isolate 6312, drug 2 μg/mL",1
same,Cell counts (mean),"[3]; isolate 6312, drug 8 μg/mL",1
same,Cell counts plate A,[3]; [14],0
same,Cell counts plate B,[3]; [14],0
same,Mutation frequency,[3]; [14],<2.56E−10
same,Cell counts plate A,[3]; [15],0
same,Cell counts plate B,[3]; [15],0
same,Mutation frequency,[3]; [15],<2.56E−10
same,Cell counts plate A,[3]; [16],0
same,Cell counts plate B,[3]; [16],0
same,Mutation frequency,[3]; [16],<2.56E−10
same,MIC,[4],0.015 µg/mL
